Reference: patent publication US20110033906A1 (priority 2009, published 2011)

What was measured:
[1] = system: cellulase surface-displaying yeast (arming yeast); conditions: 120 hours after the start of fermentation

| Compound | ethanol yield relative to theoretical yield [1] | ethanol obtained ([1]; crystalline cellulose (Avicel) pretreated with [Emim][DEP], arming yeast, ionic liquid present) [g/L] | yeast survivability (live cell counts) (yeast (MT 8-1)) |
| --- | --- | --- | --- |
| 1-ethyl-3-methylimidazolium diethylphosphate [[Emim][DEP]] | about 56% | 1.43 | – |
| CCn1cc[n+](C)c1 [[Emim][Cl], 1-ethyl-3-methylimidazolium chloride] | – | – | not greatly affected |
